The target in the experiment is T1, Kras and SOS1 (biotin-tagged human Kras loaded with GDP, His-tagged human SOS1) (Homo sapiens, UniProt P01116, G12D).
T1 construct: made in house; host or cells: E. coli (stated for Kras only)
Briefly: Protein-protein interaction inhibition between Kras and SOS1 (KrasGl2D-SOS PPI) using AlphaScreen. The settings on record: AlphaScreen; biotin-tagged human Kras loaded with GDP, His-tagged human SOS1; read-out: KRAS G12D-SOS PPI IC50. It counts as binding. Summed up: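 Donor beads (nickel) hold His-SOS1; acceptor beads (streptavidin) hold biotin-Kras bound to GDP. Signal measured at 520-620 nm following 680 nm excitation.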
For orientation: Bead proximity is the source of the signal in Alpha formats.

SMILES strings stand for the structures. Starred links: 1 amine or outer side, 2 acyl side, 3 side chain; linkers in the order of their positions; H or OH if unused. Positions of bridges follow the written chain, without caps; N, C: chain ends. Non-standard residues stand in square brackets, D forms with d. Residues, ends and D or L forms follow the SMILES beside them. *: point of attachment. hPhe(3,5-F2-4-CF3) = N[C@@H](CCc1cc(F)c(C(F)(F)F)c(F)c1)C(=O)O; hPhe(3-Cl-4-CF3) = N[C@@H](CCc1ccc(C(F)(F)F)c(Cl)c1)C(=O)O; NMePhe(4-CF3) = CN[C@@H](Cc1ccc(C(F)(F)F)cc1)C(=O)O; NMePhe(4-Me) = CN[C@@H](Cc1ccc(C)cc1)C(=O)O; X11 = CN([C@@H](CCc1cccnc1)C(=O)[*:2])[*:1]; NMePhe(4-F) = CN[C@@H](Cc1ccc(F)cc1)C(=O)O; NMePhe(4-I) = CN[C@@H](Cc1ccc(I)cc1)C(=O)O; NMeI = CC[C@H](C)[C@H](NC)C(=O)O; dNMeF = CN[C@H](Cc1ccccc1)C(=O)O; NMeD = CN[C@@H](CC(=O)O)C(=O)O; NMeL = CN[C@@H](CC(C)C)C(=O)O; NMeA = CN[C@@H](C)C(=O)O; Piperidide = C1CCN(*)CC1; Ac5c = NC1(C(=O)O)CCCC1; Aze = O=C(O)[C@@H]1CCN1; Sar = CNCC(=O)O

T1 sequence (P01116 1-188 isoform P01116-2 G12D): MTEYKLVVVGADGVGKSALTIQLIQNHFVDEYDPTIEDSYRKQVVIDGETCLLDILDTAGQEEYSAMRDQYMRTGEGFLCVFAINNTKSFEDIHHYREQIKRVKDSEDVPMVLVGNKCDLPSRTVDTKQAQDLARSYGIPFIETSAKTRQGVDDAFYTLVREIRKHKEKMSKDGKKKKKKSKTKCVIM

Take `CC[C@H](C)[C@@H]1NC(=O)[C@H](CC(C)C)N(C)C(=O)C[C@@H](C(=O)N(C)C)N(C)C(=O)[C@H]([C@@H](C)CC)N(C)C(=O)C2(CCCC2)NC(=O)[C@H](Cc2ccc(F)cc2)N(C)C(=O)[C@H](CCc2cc(F)c(C(F)(F)F)c(F)c2)NC(=O)CN(C)C(=O)[C@H](Cc2ccc(C(F)(F)F)cc2)N(C)C(=O)[C@@H]2CCN2C(=O)[C@H](C)N(C)C1=O` [Compound 1882] ([NMeL]I[NMeA][Aze][NMePhe(4-CF3)][Sar][hPhe(3,5-F2-4-CF3)][NMePhe(4-F)][Ac5c][NMeI][NMeD]-NMe2; lactam N-11): the IC50 amounted to 0.0097 µM.
With `CC[C@H](C)[C@@H]1NC(=O)[C@H](C)N(C)C(=O)C[C@@H](C(=O)N2CCCCC2)N(C)C(=O)[C@H]([C@@H](C)CC)N(C)C(=O)C2(CCCC2)NC(=O)[C@H](Cc2ccc(F)cc2)N(C)C(=O)[C@H](CCc2ccc(C(F)(F)F)c(Cl)c2)NC(=O)CN(C)C(=O)[C@H](Cc2ccc(C)cc2)N(C)C(=O)[C@@H]2CCN2C(=O)[C@H](C)N(C)C1=O` [Compound 1885] ([NMeA]I[NMeA][Aze][NMePhe(4-Me)][Sar][hPhe(3-Cl-4-CF3)][NMePhe(4-F)][Ac5c][NMeI][NMeD]-Piperidide; lactam N-11), the IC50 stood at 0.032 µM.
For `CC[C@H](C)[C@@H]1NC(=O)[C@H](CC(C)C)N(C)C(=O)C[C@@H](C(=O)N(C)C)N(C)C(=O)[C@H]([C@@H](C)CC)N(C)C(=O)C2(CCCC2)NC(=O)[C@H](CCc2cccnc2)N(C)C(=O)[C@H](CCc2ccc(C(F)(F)F)c(Cl)c2)NC(=O)CN(C)C(=O)[C@H](Cc2ccc(C)cc2)N(C)C(=O)[C@@H]2CCN2C(=O)[C@H](C)N(C)C1=O` [Compound 1886] ([NMeL]I[NMeA][Aze][NMePhe(4-Me)][Sar][hPhe(3-Cl-4-CF3)][X11][Ac5c][NMeI][NMeD]-NMe2; lactam N-11), the IC50 amounted to 0.00093 µM.
As to `CC[C@H](C)[C@@H]1NC(=O)[C@H](C)N(C)C(=O)C[C@@H](C(=O)N2CCCCC2)N(C)C(=O)[C@H]([C@@H](C)CC)N(C)C(=O)C2(CCCC2)NC(=O)[C@@H](Cc2ccccc2)N(C)C(=O)[C@H](CCc2cc(F)c(C(F)(F)F)c(F)c2)NC(=O)CN(C)C(=O)[C@H](Cc2ccc(C)cc2)N(C)C(=O)[C@@H]2CCN2C(=O)[C@H](C)N(C)C1=O` [Compound 1887] ([NMeA]I[NMeA][Aze][NMePhe(4-Me)][Sar][hPhe(3,5-F2-4-CF3)][dNMeF][Ac5c][NMeI][NMeD]-Piperidide; lactam N-11), the IC50 turned out to be 0.18 µM.
In the case of `CC[C@H](C)[C@@H]1NC(=O)[C@H](CC(C)C)N(C)C(=O)C[C@@H](C(=O)N(C)C)N(C)C(=O)[C@H]([C@@H](C)CC)N(C)C(=O)C2(CCCC2)NC(=O)[C@H](Cc2ccc(I)cc2)N(C)C(=O)[C@H](CCc2ccc(C(F)(F)F)c(Cl)c2)NC(=O)CN(C)C(=O)[C@H](Cc2ccc(C)cc2)N(C)C(=O)[C@@H]2CCN2C(=O)[C@H](C)N(C)C1=O` [Compound 1888] ([NMeL]I[NMeA][Aze][NMePhe(4-Me)][Sar][hPhe(3-Cl-4-CF3)][NMePhe(4-I)][Ac5c][NMeI][NMeD]-NMe2; lactam N-11), the IC50 is 0.053 µM.
For the compound `CC[C@H](C)[C@@H]1NC(=O)[C@H](C)N(C)C(=O)C[C@@H](C(=O)N(C)C)N(C)C(=O)[C@H]([C@@H](C)CC)N(C)C(=O)C2(CCCC2)NC(=O)[C@@H](Cc2ccccc2)N(C)C(=O)[C@H](CCc2ccc(C(F)(F)F)c(Cl)c2)NC(=O)CN(C)C(=O)[C@H](Cc2ccc(C)cc2)N(C)C(=O)[C@@H]2CCN2C(=O)[C@H](C)N(C)C1=O` [Compound 1889] ([NMeA]I[NMeA][Aze][NMePhe(4-Me)][Sar][hPhe(3-Cl-4-CF3)][dNMeF][Ac5c][NMeI][NMeD]-NMe2; lactam N-11), the half-inhibitory concentration (IC50) amounted to 0.098 µM.

For orientation: IC50 means the midpoint of a concentration-inhibition curve.

The values above are taken from patent US12371454B2, “Cyclic peptide compound having Kras inhibitory action” (priority 2019, dated 2025).
